As a reminder, the inhibition is the change of the read-out against control, counted positive when it falls. Low readings indicate a weak effect, high ones a strong effect.

The source of these data is US5011847A, “2,5-diaryl tetrahydrofurans and analogs thereof as PAF antagonists” (Merck & Co., Inc., priority 1989, dated 1991).

The test concerns the target T1, PAF specific receptor binding site, human platelet membranes (Homo sapiens, UniProt P25105).
T1 construct: from tissue; host or cells: human platelets (plasma membrane suspension)
In words: Inhibition of [3H] N-methylcarbamoyl-PAF binding to human platelet membranes. The conditions noted are these: trans configuration; for inhibition at 0.003 µM: 3 nM; for inhibition at 0.03 µM: 30 nM. As for the experimental part: The compounds of formula (I) inhibit PAF-induced functions in both the cellular and tissue levels by changing the PAF binding to its specific receptor site. The ability of a compound of formula (I) to inhibit the PAF binding to its specific receptor binding site on rabbit or human platelet or PMN plasma membranes was measured by a recently developed assay.
The inhibition of ^3 [H]-PAF or ^3 [H]-N-methylcarbamoyl-PAF binding to the human or rabbit platelet or PMN plasma membrane by a PAF antagonist of formula (I) was determined by a method employing isotopic labeling and filtration techniques. Generally, a series of Tris-buffered solutions of the selected antagonist at predetermined concentrations were prepared. Each of these solutions contains 1 pmole of ^3 H-PAF, a known amount of the test antagonist, and a sufficient amount of the pH 7.5 Tris-buffer solution (10 mM Tris, 0.25% bovine serum albumin, and 150 mM NaCl per ml water) to make the final volume of 1 ml. After adding into a set of test tubes each with 100 μg of the platelet plasma membrane suspension (S. B. Hwang, et al., Biochemistry. Vol. 22, pp. 4756-4763, 1983) and one of the Tris-buffer solutions described above, the resulting mixture in each test tube was incubated at 0° C. for about one hour or until the reaction was complete. Two control samples, one of which (C1) contains all the ingredients described above except the antagonist and the other (C2) contains C 1 plus a 1000-fold excess of unlabeled PAF, were also prepared and incubated simultaneously with the test samples. After the incubation was completed, the contents of each test tube were filtered under vacuo through a Whatman GF/C fiberglass filter and the residue washed rapidly several times with a total of 20 ml cold (0°-5° C.) Tris buffer solution. Each washed residue was then suspended in 10 ml scintillation solution (Aquasol 2, New England Nuclear, Conn.) and the radioactivity was counted in a Packard Tri-Carb 460CD Liquid Scintillation System. Defining the counts from a test sample as "Total binding with antagonist"; the counts from the control sample C1, as "Total binding C1 "; and the counts from the control sample C2 as "non-specific binding C2 ", the percent inhibition of each test antagonist can be determined by the following equations: [formula]
Specific binding=(Total binding C1)-(non-specific binding C2)
*Inibition of the binding of [^3 H] Nmethylcarbamoyl-PAF to human

T1 sequence (P25105 whole entry): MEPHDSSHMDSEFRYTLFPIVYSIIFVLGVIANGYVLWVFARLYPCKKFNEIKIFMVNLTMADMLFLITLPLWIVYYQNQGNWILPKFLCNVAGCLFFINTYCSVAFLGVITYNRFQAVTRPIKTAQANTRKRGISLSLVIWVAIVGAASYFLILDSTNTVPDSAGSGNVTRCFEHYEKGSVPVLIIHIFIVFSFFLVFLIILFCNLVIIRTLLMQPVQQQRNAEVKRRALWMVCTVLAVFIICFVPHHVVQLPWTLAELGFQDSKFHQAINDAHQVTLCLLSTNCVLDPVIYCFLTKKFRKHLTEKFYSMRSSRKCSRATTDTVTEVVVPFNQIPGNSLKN

In turn, `CCCOc1c(OCC(C)=O)cc([C@@H]2CC[C@@H](c3cnc(OC)c(OC)c3)O2)cc1S(=O)(=O)CCCO` (relative stereo) gave an inhibition at 0.003 µM of 30% and an inhibition at 0.03 µM of 66%.
On the same counts, the results for `CCCOc1c(OCCCO)cc([C@@H]2CC[C@@H](c3cnc(OC)c(OC)c3)O2)cc1S(=O)(=O)CC(C)=O` (relative stereo) [trans-2-[3-(2-oxopropyl)sulfonyl-4-n-propoxy-5-(3-hydroxypropoxy)phenyl]-5[5-(2,3-dimethoxy)pyridyl]tetrahydrofuran] are 43% and 87%.
The like results for `CCCOc1c(OCC(C)=O)cc([C@H]2CC[C@H](c3cccnc3)O2)cc1S(=O)(=O)CCC` (relative stereo) [trans-2-[3-n-propylsulfonyl-4-n-propoxy-5-(2-oxopropoxy)phenyl]-5-(3-pyridyl) tetrahydrofuran] were, in that order, 12% and 66%.
The like results for `CCCOc1c(OCC(C)=O)cc([C@@H]2CC[C@@H](c3cnc(OC)c(OC)c3)O2)cc1S(=O)(=O)CCC` (relative stereo) [trans-2-[3-n-propylsulfonyl-4-n-propoxy-5-(2-oxopropoxy)phenyl]-5-[5-(2,3-dimethoxy)pyridyl]tetrahydrofuran] were, in that order, 63% and 93%.
In the case of `CCCOc1c(OCC(C)=O)cc([C@@H]2CC[C@@H](c3cnc(OC)c(OC)n3)O2)cc1S(=O)(=O)CCC` (relative stereo) [trans-2-[3-n-propylsulfonyl-4-n-propoxy-5-(2-oxopropoxy)phenyl]-5-[6-(2,3-dimethoxy)pyrazyl]tetrahydrofuran], the inhibition at 0.003 µM is 58% and the inhibition at 0.03 µM was 100%.
The like results for `CCCOc1c(OCCO)cc([C@@H]2CC[C@@H](c3cnc(OC)c(OC)c3)O2)cc1S(=O)(=O)CC(C)O` (stereo partly drawn) [trans-2-[3-(2-Hydroxypropyl)sulfonyl-4-n-propoxy 5-(2-hydroxyethoxy)phenyl]-5-[5-(2,3-dimethoxy)pyridyl]tetrahydrofuran] were, in that order, 13% and 58%.
On the same counts, the results for `CCCOc1c(OCC(C)=O)cc([C@@H]2CC[C@@H](c3cnc(OC)c(OC)c3)O2)cc1S(=O)(=O)CC(C)O` (stereo partly drawn) [trans-2-[3-(2-Hydroxypropyl)sulfonyl-4-n-propoxy-5-(2-oxopropoxy)phenyl]-5-[5-(2,3-dimethoxy)pyridyl]tetrahydrofuran] are 31% and 81%.
The like results for `CCCOc1c(OCC(C)=O)cc([C@@H]2CC[C@@H](c3cnc(OC)c(OC)n3)O2)cc1S(=O)(=O)CC(C)O` (stereo partly drawn) [trans-2-[3-(2-Hydroxypropyl)sulfonyl-4-n-propoxy-5-(2-oxopropoxy)phenyl]-5-[6-(2.3 dimethoxy)pyrazyl]tetrahydrofuran] were, in that order, 42% and 81%.
In the case of `CCCOc1c(OCCCO)cc([C@@H]2CC[C@@H](c3cnc(OC)c(OC)c3)O2)cc1S(=O)(=O)CC(C)O` (stereo partly drawn) [trans-2-[3-(2-Hydroxypropyl)sulfonyl-4-n-propoxy-5-(3-hydroxypropoxy)phenyl]-5[5-(2,3-dimethoxy)pyridyl]tetrahydrofuran], the inhibition at 0.003 µM was found to be 16% and 0.03 µM produced 75% inhibition.
The like results for `CCCOc1c(OCC(C)O)cc([C@@H]2CC[C@@H](c3cnc(OC)c(OC)c3)O2)cc1S(=O)(=O)CCC` (stereo partly drawn) [trans-2-[3-n-propylsulfonyl-4-n-propoxy-5-(2-hydroxypropoxy)phenyl]-5-[5-(2,3-dimethoxy)pyridyl]tetrahydrofuran] were, in that order, 54% and 100%.
On the same counts, the results for `CCCOc1c(OCC(C)O)cc([C@@H]2CC[C@@H](c3cnc(OC)c(OC)n3)O2)cc1S(=O)(=O)CCC` (stereo partly drawn) [trans-2-[3-n-propylsulfonyl-4-n-propoxy-5-(2-hydroxypropoxy)phenyl]-5-[6-(2,3-dimethoxy)pyrazyl]tetrahydrofuran] are 60% and 100%.
